Measurements taken from article PMC4856274, “Mnn10 Maintains Pathogenicity in Candida albicans by Extending α-1,6-Mannose Backbone to Evade Host Dectin-1 Mediated Antifungal Immunity” (PLoS Pathogens, 2016).

Target: T1, Mnn10 (MBP-fused Mnn10) (Candida albicans, UniProt Q59UR2)
T1 construct: non-transmembrane region, residues 70-335, MBP fusion (pMAL-p5X), E. coli BL21 (DE3) pLysS, amylose resin; tag kept
Test: mannosyltransferase assay, ANTS labelling of products, FACE gel
Assay type: biochemical
Settings: 5 mM GDP-D-mannose, 10 mM α-1,6-D-mannobiose, 10 mM MnCl2, 50 mM HEPES pH 7.2, 30 °C, 1 h

T1 sequence (Q59UR2 entry or part of it): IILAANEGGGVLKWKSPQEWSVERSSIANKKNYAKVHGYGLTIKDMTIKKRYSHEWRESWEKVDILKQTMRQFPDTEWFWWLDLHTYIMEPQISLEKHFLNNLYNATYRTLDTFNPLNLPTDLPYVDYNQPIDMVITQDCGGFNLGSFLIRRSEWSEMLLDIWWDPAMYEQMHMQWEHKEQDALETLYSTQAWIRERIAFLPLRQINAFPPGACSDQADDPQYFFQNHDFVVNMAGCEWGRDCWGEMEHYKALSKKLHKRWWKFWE

Compound | mannosyltransferase assay, ANTS labelling of products, FACE gel (donor) | mannosyltransferase assay, ANTS labelling of products, FACE gel (acceptor)
Nc1nc2c(ncn2[C@@H]2O[C@H](COP(=O)(O)OP(=O)(O)O[C@H]3O[C@H](CO)[C@@H](O)[C@H](O)[C@@H]3O)[C@@H](O)[C@H]2O)c(=O)[nH]1 [GDP-mannose] | Mnn10 catalyzes the transformation of GDP-mannose to α-1,6-mannobiose to form mannotriose and mannotetraose | –
OC[C@H]1O[C@H](OC[C@H]2OC(O)[C@@H](O)[C@@H](O)[C@@H]2O)[C@@H](O)[C@@H](O)[C@@H]1O (stereo partly drawn) [α-1,6-mannobiose] | – | required α-1,6-linked mannobiose as an acceptor and GDP-mannose as a donor
